How the values were obtained:
[1] = test system: glycation of histone H1 by ADP-ribose; assay: Screening of inhibitors of nonoxidative advanced glycation: AGE-fluorescence on 96 well-microtiter plate; assay type: biochemical, calf; conditions: (± SEM, n = 2); for AGE-fluorescence (day 5): complete reaction under air
Protocol: All operations were carried out at 4° C. Chromatin was isolated from fresh calf thymus by extraction with 0.14 M NaCl, 0.05 M Na2S2O5, as described earlier in Wondrak supra. After repeated extraction with 5% HCl)4 and centrifugation (1500 g), histone H1 was precipitated from the supernatant by addition of TCA (20% final concentration v/v). The histone H1 precipitate was colleted by centrifugation (12,000 g) and deionized water. After extensive dialysis (MW cut-off: 12,000-14,000) against water for 48 h, the sample was lyophilized and the protein was stored at 4° C. SDS-PAGE (12%) was used to analyze the purity of the preparation.
Earlier studies have reported that D-penicillamine inhibits collagen crosslinking and AGE fluorescence caused by sugars (McPherson, J. D., Shilton, B. H., and Walton, D. J. 1988. Role of Fructose in Glycation and Cross-Linking of Proteins. Biochemistry 27, 1901-1907) and reaction of D-penicillamine with aldehyde groups of proteins (Deshmukh, K., and Nimm, M. E. 1969. A Defect in the Intramolecular and Intermolecular Cross-linking of Collagen caused by Penicillamine. J. Biol. Chem. 244, 1787-1795). A number of different penicillamines and penicillamine derivatives were tested to determine the inhibition of AGE-fluorescence on histone H1 at physiological pH. The reaction conditions for the glycation of histone H1 by ADP-ribose mimic physiological conditions to the extent possible. Reaction mixtures contain 1.5 mg/ml histone Hl, 1.0 mM ADP-ribose, 50 mM potassium phosphate buffer, pH 7.4, 37° C. D,L-penicillamine; L-penicillamine; D-penicllamine; D-penicillaminedisulfide and N,S- isopropylidine-D-penicillamine were tested in concentrations of 1,5 and 10 mM. The detected reaction parameter representing the accumulation of protein damage is AGE-fluorescence ((λex=[…]), which is suppressed by the presence of a compound with inhibitory activity. Generation of AGE-type fluorescence (λex=355 nm; λem=405 nm) was monitored over time at 37° C; which is in the range of the broad excitation/emission maxima of AGE compounds. To allow high throughput sample processing on 96 well microtiter plates, the reaction volumes are 300 μl. Fluorescence on the 96-well microtiter plates was measured using an automated microtiter fluorescence reader. Fluorescence of the 1 ml samples of the glycation reaction mixtures was measured using a Hitachi F-200 fluorescence spectophotometer, and prior to measurement the protein sample is dialyzed extensively against water (MW cutoff=[…]), lyophilized and reconstituted in reaction buffer. For inhibitor screening the plate is read on a Fluoroskan II plate reader (Titertek, ICN) at the excitation/emission wavelengths set forth above at a bandwidth of 35 nm.
The following screening scheme is used (see Table 1): AGE-fluorescence is determined at the beginning and after five days of incubation. Test compounds that are inherently fluorescent (designated false negatives) were identified by the initial fluorescence measurement (See Table 1, NADH for example). Since these are compounds of uncertain activity, they are diverted directly to the second stage of the screen. Aminoguanidine, a known glycation inhibitory agent, was used as a positive control for suppression of the increase on AGE-fluorescence. After five days incubation and plate reading, fluorescence quenchers (designated false positives) are excluded by measuring the quenching activity of the test compound by addition of AGE modified protein having known fluorescence activity to one microtiter plate well containing test compound in the complete reaction mixture. For this, AGE-BSA is used as the AGE-type fluorescence standard. This AGE-BSA test excludes false positives compounds that function by fluorescence quenching. If fluorescence quenching occurs the test compound is excluded from further screening. […] The protein is visualized by silver staining of the gel. […]

[2] = test system: histone H1; assay: Histone H1 crosslinking by 12% SDS-PAGE with silver staining; assay type: biochemical, calf; conditions: 5 mM; histone H1, ADP-ribose reaction system
Protocol: The following screening scheme is used (see Table 1): AGE-fluorescence is determined at the beginning and after five days of incubation. Test compounds that are inherently fluorescent (designated false negatives) were identified by the initial fluorescence measurement (See Table 1, NADH for example). Since these are compounds of uncertain activity, they are diverted directly to the second stage of the screen. Aminoguanidine, a known glycation inhibitory agent, was used as a positive control for suppression of the increase on AGE-fluorescence. After five days incubation and plate reading, fluorescence quenchers (designated false positives) are excluded by measuring the quenching activity of the test compound by addition of AGE modified protein having known fluorescence activity to one microtiter plate well containing test compound in the complete reaction mixture. For this, AGE-BSA is used as the AGE-type fluorescence standard. This AGE-BSA test excludes false positives compounds that function by fluorescence quenching. If fluorescence quenching occurs the test compound is excluded from further screening. […] The protein is visualized by silver staining of the gel. […] A compound that passes the first and second stage of the screen is considered a glycation inhibitor and is further evaluated for biological activity as described below. […]

[3] = test system: CF-3 cells; assay: Protection of fibroblasts from alpha-dicarbonyl stress (cell count after 72 hour exposure); assay type: cell-based, human; conditions: FIG. 14
Protocol: (§1) A continuous cell line of human epidermal keratinocytes (HaCat cells) and human dermal fibroblasts (CF-3 cells) were routinely cultured in 75 cm^2 flasks and split biweekly in DMEM containing 10% fetal bovine serum and kept in a humidified atmosphere containing 5% CO2 at 37° C. Human keratinocytes were split using 5% trypsin and human fibroblasts employed 1% trypsin. All experiments were carried out on 6 well dishes (Falcon USA), where keratinocytes were seeded at 2×10^4 cells/well and fibroblasts at 4×10^4 cells/well. Cells were left overnight to attach to the plate and the appropriate carbonyl scavenger was then added 15 minutes prior to the addition of the alpha-dicarbonyl stress compounds glyoxal or methylglyoxal. Following 72 hour exposure to the stress compound, cells were counted with a Coulter counter. the protective effects of the alpha-dicarbonyl scavengers were assessed by comparing the growth of untreated cells with cells exposed to alpha-carbonyl stress +/− test compound.

[4] = test system: HaCat cells; assay: Protection of keratinocytes from alpha-dicarbonyl stress (cell count after 72 hour exposure); assay type: cell-based, human; conditions: FIG. 14
Protocol: as §1

Compound: N=C(N)NN [Aminoguanidine]
- AGE-fluorescence (day 0) ([1]; compound 1 mM): 1.2 (0.1) relative units
- AGE-fluorescence (day 5) ([1]; compound 1 mM): 4.3 (0.2) relative units
- AGE-fluorescence (day 0) ([1]; compound 5 mM): 1.2 (0.1) relative units
- AGE-fluorescence (day 5) ([1]; compound 5 mM): 2.0 (0.0) relative units
- AGE-fluorescence (day 0) ([1]; compound 10 mM): 1.3 (0.1) relative units
- AGE-fluorescence (day 5) ([1]; compound 10 mM): 1.8 (0.0) relative units
- inhibition of histone H1 crosslinking [2]: inhibit histone H1 crosslinking
- protection from alpha-dicarbonyl stress [3]: protection
- protection from alpha-dicarbonyl stress [4]: protection

Reference: patent publication US6417235B2, “Method and use of α-amino-β-mercapto-ethane derivatives as dicarbonyl scavengers for treatment of conditions resulting from protein, lipid, and DNA damage” (University of Kentucky Research Foundation, priority 2000, dated 2002)
